Measured values: patent EP4803094A2, “GLP-1/GIP DUAL, GLP-1/GCG DUAL AND GLP-1/GIP/GCG TRIPLE RECEPTOR AGONISTS” (Sun Pharmaceutical Industries Limited, priority 2023, dated 2024)
Marks after values point to notes of the source that are not given here.

T1: GIPR (UniProt P48546 22-466, limits assumed)
T1 sequence (looked up): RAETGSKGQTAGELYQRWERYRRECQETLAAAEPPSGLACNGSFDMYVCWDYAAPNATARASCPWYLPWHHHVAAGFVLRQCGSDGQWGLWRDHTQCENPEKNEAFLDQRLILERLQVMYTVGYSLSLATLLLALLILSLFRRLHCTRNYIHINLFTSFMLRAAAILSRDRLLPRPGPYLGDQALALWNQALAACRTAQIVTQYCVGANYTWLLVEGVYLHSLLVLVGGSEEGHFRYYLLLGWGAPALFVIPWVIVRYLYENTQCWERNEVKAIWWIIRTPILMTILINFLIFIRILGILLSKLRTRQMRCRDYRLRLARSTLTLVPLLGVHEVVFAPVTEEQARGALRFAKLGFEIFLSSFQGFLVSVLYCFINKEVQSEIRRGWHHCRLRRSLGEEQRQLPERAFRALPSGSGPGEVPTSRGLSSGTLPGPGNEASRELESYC

B1: Compound 12 (peptide)
peptide: YXQGTFTSDYSIXLDKXAQXAFIEYLLEGGPSSGAPPPS
modifications: Aib at 2; αMethyl-Leu at 13; Lys 17 ε-amino acylated with Moiety A; Aib at 20; C-terminal amide (Rink amide resin)
B2: Compound 13 (peptide)
peptide: B1 peptide
modifications: Aib at 2; αMethyl-Leu at 13; Lys 17 ε-amino acylated with Moiety B; Aib at 20; C-terminal amide
B3: Compound 19 (peptide)
peptide: B1 peptide
modifications: Aib at 2; αMethyl-Leu at 13; Lys 17 ε-amino acylated with Moiety C; Aib at 20; C-terminal amide
B4: Compound 14 (peptide)
peptide: B1 peptide
modifications: Aib at 2; norleucine at 13; Lys 17 ε-amino acylated with Moiety B; Aib at 20; C-terminal amide
B5: Compound 17 (peptide)
peptide: B1 peptide
modifications: Aib at 2; norvaline at 13; Lys 17 ε-amino acylated with Moiety B; Aib at 20; C-terminal amide
B6: Compound 20 (peptide)
peptide: B1 peptide
modifications: Aib at 2; αMethyl-Leu at 13; Lys 17 ε-amino acylated with Moiety D; Aib at 20; C-terminal amide
B7: Compound 18 (peptide)
peptide: B1 peptide
modifications: not fully specified; Aib at 2; norvaline at 13; Lys 17 ε-amino acylated with Moiety G; Aib at 20; C-terminal amide

Assays:
Rats [1] = experiment: Oral Glucose Tolerance Test (OGTT) in rats, single injection (blood glucose AUC, body weight, food consumption); format: in vivo; details: for Food Consumption (g) / Body weight change (%): 30 nM/kg s.c.; for Food Consumption (g): 0-12 hr; for Food Consumption (g) / Body weight change (%) / Blood Glucose AUC(0-120min) Mean: mean (n=4); for Blood Glucose AUC(0-120min) Mean: OGTT 2 g/kg glucose orally, 24 hr post subcutaneous injection of 30 nM/kg; for % Change in Blood glucose AUC(0-120min) vs placebo control: OGTT 24 hr post subcutaneous injection of 30 nM/kg
Experimental: Animals were divided into 6 groups (n=4/group): a placebo control group, Compound 17, (30 nM/kg), Compound 18 (30 nM/kg), Compound 19 (30 nM/kg), Compound 20 (30 nM/kg), and Retatrutide (30 nM/kg). Animals were fasted for 12 hours before initiation of OGTT. After 24 hours of subcutaneous injection of tests or Retatrutide, blood glucose was measured with blood glucometer (time 0 measurement). All the animals were given 2 g/kg of glucose solution orally. Blood glucose was measured at 10, 20, 40, 60, 90, and 120 min following glucose challenge. Body weight and food consumption were recorded at 12 hr, 48 hr and 72 hr.

Rats [2] = experiment: as above; format: in vivo; details: 30 nM/kg s.c., mean (n=4); for Body weight change (%): 24 hr
GIPR = target: T1, GIPR; experiment: cell-based or functional assay
GCGR = GCGR (UniProt P47871 26-477, limits assumed); experiment: cell-based or functional assay
GLP-1R = GLP-1R (UniProt P43220 24-463, limits assumed); experiment: cell-based or functional assay

GCGR, sequence (P47871 26-477 limits assumed): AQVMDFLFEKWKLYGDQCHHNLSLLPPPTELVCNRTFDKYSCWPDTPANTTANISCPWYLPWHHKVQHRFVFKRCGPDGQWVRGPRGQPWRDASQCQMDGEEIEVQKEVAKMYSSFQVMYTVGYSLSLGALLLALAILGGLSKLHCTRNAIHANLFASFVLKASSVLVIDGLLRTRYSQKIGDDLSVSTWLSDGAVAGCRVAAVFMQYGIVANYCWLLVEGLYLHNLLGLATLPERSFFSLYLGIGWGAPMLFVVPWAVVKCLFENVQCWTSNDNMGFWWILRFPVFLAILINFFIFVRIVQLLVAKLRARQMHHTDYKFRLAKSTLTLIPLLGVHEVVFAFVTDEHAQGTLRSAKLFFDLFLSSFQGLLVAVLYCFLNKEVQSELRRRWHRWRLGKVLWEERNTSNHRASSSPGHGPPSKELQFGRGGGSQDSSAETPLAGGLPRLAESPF

Molecule	Food Consumption (g) (Rats [1])	Body weight change (%) (Rats [1]; 48 hr)	Body weight change (%) (Rats [1]; 72 hr)	Blood Glucose AUC(0-120min) Mean (Rats [1])	% Change in Blood glucose AUC(0-120min) vs placebo control (Rats [1]) [%]	Food Consumption (g) (Rats [2]; 24-48 hr)	Food Consumption (g) (Rats [2]; 24-72 hr)	Body weight change (%) (Rats [2])	EC50 value, cellular cAMP assay (Hit Hunter cAMP) (GIPR) [pM]	EC50 value, cellular cAMP assay (Hit Hunter cAMP) (GCGR) [pM]	EC50 value, cellular cAMP assay (Hit Hunter cAMP) (GLP-1R) [pM]
CC[C@H](C)[C@H](NC(=O)[C@H](Cc1ccccc1)NC(=O)[C@H](C)NC(=O)C(C)(C)NC(=O)[C@H](CCC(N)=O)NC(=O)[C@H](C)NC(=O)[C@H](CCCCNC(=O)COCCOCCNC(=O)NCCCCNC(=O)CC[C@H](NC(=O)CCCCCCCCCCCCCCCCCCC(=O)O)C(=O)O)NC(=O)[C@H](CCCCN)NC(=O)[C@H](CC(=O)O)NC(=O)[C@H](CC(C)C)NC(=O)[C@](C)(CC(C)C)NC(=O)[C@@H](NC(=O)[C@H](CO)NC(=O)[C@H](Cc1ccc(O)cc1)NC(=O)[C@H](CC(=O)O)NC(=O)[C@H](CO)NC(=O)[C@@H](NC(=O)[C@H](Cc1ccccc1)NC(=O)[C@@H](NC(=O)CNC(=O)[C@H](CCC(N)=O)NC(=O)C(C)(C)NC(=O)[C@@H](N)Cc1ccc(O)cc1)[C@@H](C)O)[C@@H](C)O)[C@@H](C)CC)C(=O)N[C@@H](CCC(=O)O)C(=O)N[C@@H](Cc1ccc(O)cc1)C(=O)N[C@@H](CC(C)C)C(=O)N[C@@H](CC(C)C)C(=O)N[C@@H](CCC(=O)O)C(=O)NCC(=O)NCC(=O)N1CCC[C@H]1C(=O)N[C@@H](CO)C(=O)N[C@@H](CO)C(=O)NCC(=O)N[C@@H](C)C(=O)N1CCC[C@H]1C(=O)N1CCC[C@H]1C(=O)N1CCC[C@H]1C(=O)N[C@@H](CO)C(N)=O [Compound 20]	1.6*** g	-4.6*** %	-2.7*** %	4472.5***	-53.76	12.8*** g	33.1*** g	-6.0*** %			
CCC[C@H](NC(=O)[C@@H](NC(=O)[C@H](CO)NC(=O)[C@H](Cc1ccc(O)cc1)NC(=O)[C@H](CC(=O)O)NC(=O)[C@H](CO)NC(=O)[C@@H](NC(=O)[C@H](Cc1ccccc1)NC(=O)[C@@H](NC(=O)CNC(=O)[C@H](CCC(N)=O)NC(=O)C(C)(C)NC(=O)[C@@H](N)Cc1ccc(O)cc1)[C@@H](C)O)[C@@H](C)O)[C@@H](C)CC)C(=O)N[C@@H](CC(C)C)C(=O)N[C@@H](CC(=O)O)C(=O)N[C@@H](CCCCN)C(=O)N[C@@H](CCCCNC(=O)COCCOCCNC(=O)C(C)(C)NC(=O)CC[C@H](NC(=O)CCCCCCCCCCCCCCCCCCC(=O)O)C(=O)O)C(=O)N[C@@H](C)C(=O)N[C@@H](CCC(N)=O)C(=O)NC(C)(C)C(=O)N[C@@H](C)C(=O)N[C@@H](Cc1ccccc1)C(=O)N[C@H](C(=O)N[C@@H](CCC(=O)O)C(=O)N[C@@H](Cc1ccc(O)cc1)C(=O)N[C@@H](CC(C)C)C(=O)N[C@@H](CC(C)C)C(=O)N[C@@H](CCC(=O)O)C(=O)NCC(=O)NCC(=O)N1CCC[C@H]1C(=O)N[C@@H](CO)C(=O)N[C@@H](CO)C(=O)NCC(=O)N[C@@H](C)C(=O)N1CCC[C@H]1C(=O)N1CCC[C@H]1C(=O)N1CCC[C@H]1C(=O)N[C@@H](CO)C(N)=O)[C@@H](C)CC [Compound 17]	1.4*** g	-5.0*** %	-3.3*** %	4771.3***	-50.67	15.8*** g	31.3*** g	-6.8*** %			
CC[C@H](C)[C@H](NC(=O)[C@H](Cc1ccccc1)NC(=O)[C@H](C)NC(=O)C(C)(C)NC(=O)[C@H](CCC(N)=O)NC(=O)[C@H](C)NC(=O)[C@H](CCCCNC(=O)COCCOCCNC(=O)NCCCCNC(=O)CC[C@H](NC(=O)CCCCCCCCCCCCCCCCC(=O)O)C(=O)O)NC(=O)[C@H](CCCCN)NC(=O)[C@H](CC(=O)O)NC(=O)[C@H](CC(C)C)NC(=O)[C@](C)(CC(C)C)NC(=O)[C@@H](NC(=O)[C@H](CO)NC(=O)[C@H](Cc1ccc(O)cc1)NC(=O)[C@H](CC(=O)O)NC(=O)[C@H](CO)NC(=O)[C@@H](NC(=O)[C@H](Cc1ccccc1)NC(=O)[C@@H](NC(=O)CNC(=O)[C@H](CCC(N)=O)NC(=O)C(C)(C)NC(=O)[C@@H](N)Cc1ccc(O)cc1)[C@@H](C)O)[C@@H](C)O)[C@@H](C)CC)C(=O)N[C@@H](CCC(=O)O)C(=O)N[C@@H](Cc1ccc(O)cc1)C(=O)N[C@@H](CC(C)C)C(=O)N[C@@H](CC(C)C)C(=O)N[C@@H](CCC(=O)O)C(=O)NCC(=O)NCC(=O)N1CCC[C@H]1C(=O)N[C@@H](CO)C(=O)N[C@@H](CO)C(=O)NCC(=O)N[C@@H](C)C(=O)N1CCC[C@H]1C(=O)N1CCC[C@H]1C(=O)N1CCC[C@H]1C(=O)N[C@@H](CO)C(N)=O [Compound 19]	1.3*** g	-4.9*** %	-2.6*** %	3848.8***	-60.20	7.2*** g	17.0*** g	-6.3*** %			
B1									12000	6990	12000
B2									> 1500	> 1800	> 2400
B3									13.8	109	11.6
B4									24000	20900	8540
B5									11.5	13.3	8.7
B6									18.1	140	14.4
B7									22.7	193	17.3
